The record followed here is patent publication US20190255048A1, “PYRIMIDINE COMPOUND OR SALT THEREOF IN APPLICATION FOR MANUFACTURING PHARMACEUTICAL PRODUCT FOR PREVENTING AND/OR TREATING FLT3-RELATED DISEASE OR DISORDER” (SHENZHEN HAIBIN PHARMACEUTICAL CO., LTD, priority 2016, published 2019).

The test system of experiment [1] is human acute myeloid leukemia cell strain MOLM-14 (expressing FLT3/ITD mutant gene and wild-type FLT3 gene). Briefly: Effects on proliferation of tumor cells (Cell Titer-Glo), MOLM-14. Type of experiment: cell-based. The following applies: MOLM-14, incubated for 72 hours. The text has this:
(§1) This example tested the effects of the compounds of the present invention (the compound shown in Formula (I), hydrochloride salt, phosphate, mesylate, lactate, acetate, sulphate, and hydrobromide thereof prepared in EXAMPLES 1-8 respectively) on proliferation of tumor cells, and further evaluated the inhibitory effects of the compounds on proliferation of tumor cells and selectivity of the compounds in inhibiting proliferation of tumor cells.
(3) human acute myeloid leukemia cell strain MOLM-14 (expressing FLT3/ITD mutant gene and wild-type FLT3 gene);
(§2) The compounds at different concentration (0.000508 μM, 0.00152 μM, 0.00457 μM, 0.0137 μM, 0.0411 μM, 0.123 μM, 0.370 μM, 1.11 μM, 3.33 μM, 10 μM in DMSO) were added to the above-mentioned cells respectively, incubated for 72 hours, Cell Titer-Glo (Promega, United States of America) Chemiluminescence Kit was used to quantify ATP in living cells to detect the number of living cells, the results were shown as Table 3

Experiment [2] deals with mouse TEL-BaF3-FLT3/ITD (stably expressing FLT3/ITD mutant activated kinase). In words: Effects on proliferation of cells (Cell Titer-Glo), TEL-BaF3-FLT3/ITD. The following applies: incubated for 72 hours. Type of experiment: cell-based.
From the text: as §1
(6) mouse TEL-BaF3-FLT3/ITD (stably expressing FLT3/ITD mutant activated kinase);
as §2

The target in experiment [3] is T1, FLT3 kinase (Homo sapiens, UniProt P36888).
T1 sequence (P36888 27-993): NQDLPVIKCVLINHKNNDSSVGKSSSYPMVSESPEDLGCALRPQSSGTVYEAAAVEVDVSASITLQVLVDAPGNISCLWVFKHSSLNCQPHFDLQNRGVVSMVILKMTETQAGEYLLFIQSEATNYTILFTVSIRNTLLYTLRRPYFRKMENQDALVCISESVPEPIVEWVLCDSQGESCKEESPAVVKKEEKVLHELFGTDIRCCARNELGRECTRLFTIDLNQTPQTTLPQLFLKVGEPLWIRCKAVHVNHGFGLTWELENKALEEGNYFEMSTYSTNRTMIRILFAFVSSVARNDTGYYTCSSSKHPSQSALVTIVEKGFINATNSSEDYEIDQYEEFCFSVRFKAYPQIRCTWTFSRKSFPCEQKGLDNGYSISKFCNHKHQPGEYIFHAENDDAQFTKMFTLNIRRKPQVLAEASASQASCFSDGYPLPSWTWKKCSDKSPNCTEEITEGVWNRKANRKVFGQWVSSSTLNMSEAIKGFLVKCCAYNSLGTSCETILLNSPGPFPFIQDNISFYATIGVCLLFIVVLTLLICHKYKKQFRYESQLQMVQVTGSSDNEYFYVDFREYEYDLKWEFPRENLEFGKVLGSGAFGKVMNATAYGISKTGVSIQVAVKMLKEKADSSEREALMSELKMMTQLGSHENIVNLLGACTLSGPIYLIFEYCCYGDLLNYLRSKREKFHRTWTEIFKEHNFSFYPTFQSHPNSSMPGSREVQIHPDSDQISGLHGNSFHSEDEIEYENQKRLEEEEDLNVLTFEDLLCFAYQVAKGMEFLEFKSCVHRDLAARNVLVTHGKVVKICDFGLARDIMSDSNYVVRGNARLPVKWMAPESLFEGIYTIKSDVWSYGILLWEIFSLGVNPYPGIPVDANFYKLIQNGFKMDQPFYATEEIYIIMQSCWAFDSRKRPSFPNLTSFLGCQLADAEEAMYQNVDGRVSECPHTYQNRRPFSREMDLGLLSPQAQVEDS
In words: Activity of inhibiting FLT3 kinase (fluorescein labeled peptide kinase assay). Type of experiment: biochemical. The following applies: in vitro kinase assay, 28° C. The method, then:
Activity of Inhibiting FLT3 Kinase
1. Preparation of 1 × Kinase Buffer and Termination Buffer:
(1) MnCl2-free 1× kinase buffer: 50 mM HEPES, pH 7.5, 0.0015% Brij-35, 10 mM MgCl2, 2 mM DTT;
(2) Termination buffer: 100 mM HEPES, pH 7.5, 0.015% Brij-35, 0.2% Coating Reagent #3, 50 mM EDTA.
2. Preparation of compounds for testing kinase: the compounds are diluted continuously.
(1) the compound was diluted to 50 times the maximum final concentration with 100% DMSO. […] of the solution containing the compound at this concentration was transferred to one hole of 96-well plate;
(2)10 concentrations of compounds were prepared by diluting 20 mL original solution with 60 mL DMSO;
(3) […] solution of 100% DMSO was added into two empty holes as compound-free control and enzyme-free control; (4) a transitional plate was prepared, 10 mL compounds at different concentrations were transferred from the original plate to the transitional plate respectively, 90 mL 1× kinase buffer was added, and then mixed under oscillation for 10 minutes;
(5) preparation of an experimental plate: 5 mL solution containing compounds was transferred from the hole of the transitional plate of the 96-well plate to the corresponding hole of 384-well plate.
(1) Preparation of 2.5× enzyme solution: enzyme was added to the 1× kinase buffer;
(2) Preparation of 2.5× peptide solution: a fluorescein labeled peptide and ATP were added to the 1× kinase buffer;
(3) 10 mL 2.5× enzyme solution was added to an experimental 384-well plate containing the compound solution with a concentration of 10% containing 5 mL DMSO and incubated at room temperature for 10 minutes;
(4) 10 mL 2.5× peptide solution was added to an experimental 384-well plate;
(5) kinase reaction and termination: Incubation was carried out at 28° C. for certain time, 25 mL termination buffer was added to terminate the reaction.
Data was read and collected.
(1) detected data was copied and converted
(2) data was converted to inhibitory rate
Inhibitory rate=(Maximum Value−Sample Value)/(Maximum Value−Minimum Value)*100;
wherein “Maximum Value” is the value of DMSO control; “Minimum Value” is the value of kinase-free control hole.
(3) the data was input an analysis software to obtain IC50 value.

The subject of experiment [4] is human acute myeloid leukemia cell strain OCI-AML-3 (expressing FLT3A680V mutant gene). Briefly: Effects on proliferation of tumor cells (Cell Titer-Glo), OCI-AML-3. It is filed as cell-based. The note with it: OCI-AML-3, incubated for 72 hours.
From the text: as §1
(4) human acute myeloid leukemia cell strain OCI-AML-3 (expressing FLT3A680V mutant gene);
as §2

Consider `CC(=O)O.Nc1sc(-c2c(F)cccc2F)nc1C(=O)Nc1cncnc1OCC1CCNCC1` [Acetate of compound of Formula (I)], for which the IC50 in experiment [1] was found to be 0.12 µM; in experiment [2], 0.02 µM; in experiment [3], 27 nM; in experiment [4], 0.32 µM.
For the compound `Nc1sc(-c2c(F)cccc2F)nc1C(=O)Nc1cncnc1OCC1CCNCC1` [Compound of Formula (I), 5-amino-2-(2,6-difluorophenyl)-N-(4-(piperidine-4-methoxy)pyrimidine-5-) thiazole-4-formamide], the IC50 in experiment [1] (Homo sapiens) is 0.27 µM; in experiment [2] (Mus musculus), 0.11 µM; in experiment [3] it was 40 nM; in experiment [4] (Homo sapiens) it was 0.34 µM.
Regarding `Br.Nc1sc(-c2c(F)cccc2F)nc1C(=O)Nc1cncnc1OCC1CCNCC1` [Hydrobromide of compound of Formula (I)], the 50% inhibitory concentration (IC50) in experiment [1] is 0.13 µM; in experiment [2], 0.02 µM; in experiment [3], 39 nM; in experiment [4], 0.11 µM.
For `Cl.Nc1sc(-c2c(F)cccc2F)nc1C(=O)Nc1cncnc1OCC1CCNCC1` [Hydrochloride salt of compound of Formula (I)], the half-inhibitory concentration (IC50) in experiment [1] was determined as 0.08 µM; in experiment [2], 0.02 µM; in experiment [3], 15 nM; in experiment [4], 0.05 µM.
Take `CC(O)C(=O)O.Nc1sc(-c2c(F)cccc2F)nc1C(=O)Nc1cncnc1OCC1CCNCC1` [Lactate of compound of Formula (I)]: the IC50 was determined as 0.31 µM in experiment [1], 0.04 µM in experiment [2], 25 nM in experiment [3] and 0.08 µM in experiment [4].
With `CS(=O)(=O)O.Nc1sc(-c2c(F)cccc2F)nc1C(=O)Nc1cncnc1OCC1CCNCC1` [Mesylate of compound of Formula (I)], the IC50 in experiment [1] came out at 0.13 µM; in experiment [2], 0.02 µM; in experiment [3], 28 nM; in experiment [4] it was 0.06 µM.
As for `Nc1sc(-c2c(F)cccc2F)nc1C(=O)Nc1cncnc1OCC1CCNCC1.O=S(=O)(O)O` [Sulphate of compound of Formula (I)], the IC50 in experiment [1] worked out at 0.22 µM; in experiment [2], 0.04 µM; in experiment [3], 28 nM; in experiment [4], 0.21 µM.
